# Tests used:
# ORYSAT (Rice, Tebonnet) = experiment: Postemergence herbicidal evaluation; format: in vivo, Oryza sativa, (L.) Tebonnet; settings: postemergence
# How it was run: (§1)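 Visual 0–9 rating versus control (stand, vigor, malformation, size, chlorosis, overall appearance), taken four to five weeks post-spray. Two-week-old seedlings received roughly 0.0156–0.500 kg/ha active in acetone/water (50/50) with 0.5% TWEEN 20 via nozzle at 40 psi.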
# AMBEL (Ragweed, Common) [1] = experiment: Preemergence herbicidal evaluation; format: in vivo, Ambrosia artemisifolia; settings: rated 4-5 weeks after treatment
# How it was run: (§2)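 Seeds were planted in potting soil in cups, then sprayed preemergence with the test compound in aqueous acetone at about 0.0156 to 0.500 kg per hectare. Cups were kept under greenhouse conditions and visually rated 4–5 weeks after treatment on a 0–9 scale against an untreated control.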
# SETVI (Foxtail, Green) [2] = experiment: Preemergence herbicidal evaluation; format: in vivo, Setaria viridis; settings: rated 4-5 weeks after treatment
# How it was run: as §2
# [3] = system: CHEAL (Lambsquarters, Common); experiment: Preemergence herbicidal evaluation; format: in vivo, Chenopodium album; settings: rated 4-5 weeks after treatment
# How it was run: as §2
# CYPIR (Rice Flatsedge) = experiment: Preemergence weed control under flooded paddy conditions; format: in vivo, Cyperus iria; settings: rated 3-4 weeks after treatment
# How it was run: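 Flooded-pot preemergence screen with silt loam and seeds in the upper 0.5 cm. Dose about 0.0313 to 0.500 kg/ha, delivered into flood water; visual 0-9 score after 3 to 4 weeks.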
# [4] = system: IPOHE (Morningglory, Ivyleaf); experiment: Preemergence herbicidal evaluation; format: in vivo, Ipomoea hederacea; settings: rated 4-5 weeks after treatment
# How it was run: as §2
# AMBEL (Ragweed, Common) [5] = experiment: Postemergence herbicidal evaluation; format: in vivo, Ambrosia artemisifolia; settings: postemergence
# How it was run: as §1
# ABUTH (Velvetleaf) = experiment: Preemergence herbicidal evaluation; format: in vivo, Abutilon theophrasti; settings: rated 4-5 weeks after treatment
# How it was run: as §2
# [6] = system: CHEAL (Lambsquarters, Common); experiment: Postemergence herbicidal evaluation; format: in vivo, Chenopodium album; settings: postemergence
# How it was run: as §1
# GALAP (Galium) = experiment: Preemergence herbicidal evaluation; format: in vivo, Galium aparine; settings: rated 4-5 weeks after treatment
# How it was run: as §2
# ZEAMX (Corn, Field) = experiment: Preemergence herbicidal evaluation; format: in vivo, Zea mays; settings: rated 4-5 weeks after treatment
# How it was run: as §2
# [7] = system: IPOHE (Morningglory, Ivyleaf); experiment: Postemergence herbicidal evaluation; format: in vivo, Ipomoea hederacea; settings: postemergence
# How it was run: as §1
# ECHCG (Barnyardgrass) = experiment: Preemergence herbicidal evaluation; format: in vivo, Echinochloa crus-galli; settings: rated 4-5 weeks after treatment
# How it was run: as §2
# CASOB (Sicklepod) = experiment: Preemergence herbicidal evaluation; format: in vivo, Cassia obtusifolia; settings: rated 4-5 weeks after treatment
# How it was run: as §2
# [8] = system: GLXMAW (Soybean, Williams); experiment: Postemergence herbicidal evaluation; format: in vivo, Glycine max, (L.) Merr. cv Williams; settings: postemergence
# How it was run: as §1
# SETVI (Foxtail, Green) [9] = experiment: Postemergence herbicidal evaluation; format: in vivo, Setaria viridis; settings: postemergence
# How it was run: as §1
compound,measurement,setting,value
"COC(=O)C(C)OC(=O)CN1C(=O)CSC1=Nc1cc(-n2c(=O)cc(C(F)(F)F)n(C)c2=O)c(F)cc1Cl (stereo not shown) [Compound 116, 2-{{2-Chloro-5-[3,6-dihydro-3-methyl-2,6-dioxo-4-(trifluoromethyl)-1(2H)-pyrimidinyl]-4-fluorophenyl}imino}-4-oxo-3-thiazolidineacetic acid, ester with methyl lactate]",Herbicidal rating ORYSAT,"ORYSAT (Rice, Tebonnet); rate 0.0158 kg/ha",1.5
same,Herbicidal rating ORYSAT,"ORYSAT (Rice, Tebonnet); rate 0.0315 kg/ha",2.0
same,Herbicidal rating ORYSAT,"ORYSAT (Rice, Tebonnet); rate 0.0630 kg/ha",2.0
same,Preemergence herbicidal rating AMBEL,"AMBEL (Ragweed, Common) [1]; rate 0.0156 kg/ha",0.0
same,Preemergence herbicidal rating AMBEL,"AMBEL (Ragweed, Common) [1]; rate 0.0313 kg/ha",0.0
same,Preemergence herbicidal rating AMBEL,"AMBEL (Ragweed, Common) [1]; rate 0.0625 kg/ha",2.0
same,Preemergence herbicidal rating AMBEL,"AMBEL (Ragweed, Common) [1]; rate 0.1250 kg/ha",2.0
same,Preemergence herbicidal rating AMBEL,"AMBEL (Ragweed, Common) [1]; rate 0.2500 kg/ha",1.0
same,Preemergence herbicidal rating SETVI,"SETVI (Foxtail, Green) [2]; rate 0.0156 kg/ha",0.0
same,Preemergence herbicidal rating SETVI,"SETVI (Foxtail, Green) [2]; rate 0.0313 kg/ha",0.0
same,Preemergence herbicidal rating SETVI,"SETVI (Foxtail, Green) [2]; rate 0.0625 kg/ha",0.0
same,Preemergence herbicidal rating SETVI,"SETVI (Foxtail, Green) [2]; rate 0.1250 kg/ha",0.0
same,Preemergence herbicidal rating SETVI,"SETVI (Foxtail, Green) [2]; rate 0.2500 kg/ha",3.0
same,Preemergence herbicidal rating CHEAL,[3]; rate 0.0156 kg/ha,9.0
same,Preemergence herbicidal rating CHEAL,[3]; rate 0.0313 kg/ha,9.0
same,Preemergence herbicidal rating CHEAL,[3]; rate 0.0625 kg/ha,4.0
same,Preemergence herbicidal rating CHEAL,[3]; rate 0.1250 kg/ha,7.0
same,Preemergence herbicidal rating CHEAL,[3]; rate 0.2500 kg/ha,9.0
same,"herbicidal effect rating, CYPIR",CYPIR (Rice Flatsedge); 0.0313 kg/ha,3.0
same,"herbicidal effect rating, CYPIR",CYPIR (Rice Flatsedge); 0.0625 kg/ha,6.0
same,CYPIR herbicidal effect rating,CYPIR (Rice Flatsedge); 0.1250 kg/ha,7.0
same,CYPIR herbicidal effect rating,CYPIR (Rice Flatsedge); 0.2500 kg/ha,7.0
same,Preemergence herbicidal rating IPOHE,[4]; rate 0.0156 kg/ha,0.0
same,Preemergence herbicidal rating IPOHE,[4]; rate 0.0313 kg/ha,0.0
same,Preemergence herbicidal rating IPOHE,[4]; rate 0.0625 kg/ha,0.0
same,Preemergence herbicidal rating IPOHE,[4]; rate 0.1250 kg/ha,1.0
same,Preemergence herbicidal rating IPOHE,[4]; rate 0.2500 kg/ha,3.0
same,Herbicidal rating AMBEL,"AMBEL (Ragweed, Common) [5]; rate 0.0158 kg/ha",9.0
same,Herbicidal rating AMBEL,"AMBEL (Ragweed, Common) [5]; rate 0.0315 kg/ha",9.0
same,Herbicidal rating AMBEL,"AMBEL (Ragweed, Common) [5]; rate 0.0630 kg/ha",7.0
same,Preemergence herbicidal rating ABUTH,ABUTH (Velvetleaf); rate 0.0156 kg/ha,0.0
same,Preemergence herbicidal rating ABUTH,ABUTH (Velvetleaf); rate 0.0313 kg/ha,0.0
same,Preemergence herbicidal rating ABUTH,ABUTH (Velvetleaf); rate 0.0625 kg/ha,4.0
same,Preemergence herbicidal rating ABUTH,ABUTH (Velvetleaf); rate 0.1250 kg/ha,9.0
same,Preemergence herbicidal rating ABUTH,ABUTH (Velvetleaf); rate 0.2500 kg/ha,9.0
same,Herbicidal rating CHEAL,[6]; rate 0.0158 kg/ha,4.0
same,Herbicidal rating CHEAL,[6]; rate 0.0315 kg/ha,5.0
same,Herbicidal rating CHEAL,[6]; rate 0.0630 kg/ha,9.0
same,Preemergence herbicidal rating GALAP,GALAP (Galium); rate 0.0156 kg/ha,0.0
same,Preemergence herbicidal rating GALAP,GALAP (Galium); rate 0.0313 kg/ha,0.0
same,Preemergence herbicidal rating GALAP,GALAP (Galium); rate 0.0625 kg/ha,0.0
same,Preemergence herbicidal rating GALAP,GALAP (Galium); rate 0.1250 kg/ha,0.0
same,Preemergence herbicidal rating GALAP,GALAP (Galium); rate 0.2500 kg/ha,7.0
same,Preemergence herbicidal rating ZEAMX,"ZEAMX (Corn, Field); rate 0.0156 kg/ha",0.0
same,Preemergence herbicidal rating ZEAMX,"ZEAMX (Corn, Field); rate 0.0313 kg/ha",0.0
same,Preemergence herbicidal rating ZEAMX,"ZEAMX (Corn, Field); rate 0.0625 kg/ha",0.0
same,Preemergence herbicidal rating ZEAMX,"ZEAMX (Corn, Field); rate 0.1250 kg/ha",0.0
same,Preemergence herbicidal rating ZEAMX,"ZEAMX (Corn, Field); rate 0.2500 kg/ha",0.0
same,Herbicidal rating IPOHE,[7]; rate 0.0158 kg/ha,9.0
same,Herbicidal rating IPOHE,[7]; rate 0.0315 kg/ha,9.0
same,Herbicidal rating IPOHE,[7]; rate 0.0630 kg/ha,9.0
same,Preemergence herbicidal rating ECHCG,ECHCG (Barnyardgrass); rate 0.0156 kg/ha,0.0
same,Preemergence herbicidal rating ECHCG,ECHCG (Barnyardgrass); rate 0.0313 kg/ha,0.0
same,Preemergence herbicidal rating ECHCG,ECHCG (Barnyardgrass); rate 0.0625 kg/ha,0.0
same,Preemergence herbicidal rating ECHCG,ECHCG (Barnyardgrass); rate 0.1250 kg/ha,0.0
same,Preemergence herbicidal rating ECHCG,ECHCG (Barnyardgrass); rate 0.2500 kg/ha,0.0
same,Preemergence herbicidal rating CASOB,CASOB (Sicklepod); rate 0.0156 kg/ha,0.0
same,Preemergence herbicidal rating CASOB,CASOB (Sicklepod); rate 0.0313 kg/ha,0.0
same,Preemergence herbicidal rating CASOB,CASOB (Sicklepod); rate 0.0625 kg/ha,0.0
same,Preemergence herbicidal rating CASOB,CASOB (Sicklepod); rate 0.1250 kg/ha,0.0
same,Preemergence herbicidal rating CASOB,CASOB (Sicklepod); rate 0.2500 kg/ha,2.0
same,Herbicidal rating GLXMAW,[8]; rate 0.0158 kg/ha,5.5
same,Herbicidal rating GLXMAW,[8]; rate 0.0315 kg/ha,5.5
same,Herbicidal rating GLXMAW,[8]; rate 0.0630 kg/ha,5.5
same,Herbicidal rating SETVI,"SETVI (Foxtail, Green) [9]; rate 0.0158 kg/ha",1.0
same,Herbicidal rating SETVI,"SETVI (Foxtail, Green) [9]; rate 0.0315 kg/ha",3.0
same,Herbicidal rating SETVI,"SETVI (Foxtail, Green) [9]; rate 0.0630 kg/ha",3.0
